Earlier results, collected in article PMC8679620, “Receptor-Targeted Photodynamic Therapy of Glucagon-Like Peptide 1 Receptor–Positive Lesions” (Journal of Nuclear Medicine, 2020).

Conditions: at 689 nm; ref [12],[17]
Text: Exendin-4-IRDye700DX was supplied by piCHEM. IRDye700DX NHS ester was obtained from LI-COR Biosciences.

- extinction coefficient: 210000 M⁻¹ cm⁻¹
SMILES: C[Si](C)(CCC[N+](CCCS(=O)(=O)[O-])(CCCS(=O)(=O)[O-])CCCS(=O)(=O)[O-])O[Si]1(O[Si](C)(C)CCC[N+](CCCS(=O)(=O)[O-])(CCCS(=O)(=O)[O-])CCCS(=O)(=O)[O-])n2c3c4ccccc4c2N=C2N=C(N=c4c5ccccc5c(n41)=NC1=NC(=N3)c3ccccc31)c1cccc(OCCCOC(=O)NCCCCCC(=O)ON3C(=O)CCC3=O)c12.[Na+].[Na+].[Na+].[Na+] (stereo not shown) [IRDye700DX]
